Assay results taken from US20260042764A1, “COMPOSITIONS AND METHODS FOR INHIBITION OF KRAS” (TheRas, Inc., priority 2022, published 2026).
pIC50: −log10 of the molar value.

Key:
[1] = target: T1, Avi-KRAS G12D (1-169) GppNHp/RAF1 RBD-3xFLAG (52-151) (Homo sapiens, UniProt P01116, G12D); experiment: Raf1-KRAS G12D-GppNHP disruption HTRF assay (Biological Example 1); type: binding
T1 construct: Avi-KRAS G12D (1-169)
Method in brief: (§1)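 Using HTRF, the loss of KRAS–effector RAF1 complex was quantified in 50 mM Tris pH 7.5 buffer with 100 mM NaCl and 0.1% BSA. The protein step and reagent step ran 1 h each at room temperature. Activity normalized with DMSO taken as 100%.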

[2] = target: T2, Avi-KRAS G12R (1-169) GppNHp/RAF1 RBD-3xFLAG (52-151) (Homo sapiens, UniProt P01116, G12R); experiment: Raf1-KRAS G12R-GppNHP disruption HTRF assay (Biological Example 1); type: binding
T2 construct: Avi-KRAS G12R (1-169)
Method in brief: as §1

[3] = target: T3, Avi-KRAS G12V (1-169) GppNHp/RAF1 RBD-3xFLAG (52-151) (Homo sapiens, UniProt P01116, G12V); experiment: Raf1-KRAS G12V-GppNHP disruption HTRF assay (Biological Example 1); type: binding
T3 construct: Avi-KRAS G12V (1-169)
Method in brief: as §1

[4] = target: T4, Avi-KRAS WT (1-169) GppNHp/RAF1 RBD-3xFLAG (52-151) (Homo sapiens, UniProt P01116); experiment: Raf1-KRAS WT-GppNHP disruption HTRF assay (Biological Example 1); type: binding
T4 construct: Avi-KRAS WT (1-169)
Method in brief: as §1

[5] = test system: GP2d cells (KRAS G12D); experiment: Cell-based pERK HTRF assay in GP2d cell (Biological Example 2); conditions: GP2d (KRAS G12D) cells, pERK HTRF
Method in brief: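 Treatment with test compounds lasted one hour in DMEM containing 10% FBS, with DMSO held at 0.25%. Dilution series: 9 points, half-log spacing, highest 1 μM or 100 nM. Lysates were incubated 4–24 h at room temperature with antibody mix, then HTRF was read at 320 nm excitation.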

[6] = test system: SW620 cells (KRAS G12V); experiment: Cell-based pERK HTRF assay in SW620 cell (Biological Example 4); conditions: pERK HTRF
Method in brief: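 In SW620 cells grown in RPMI with 10% FBS, a 4 h compound treatment (0.25% DMSO, 9-point curve from 1 μM) preceded lysis. Phospho-ERK levels were then read by time-resolved FRET at 615 nm emission.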

[7] = KRAS G12D, GppNHp-loaded, class symbols
[8] = KRAS G12R, GppNHp-loaded, class symbols
[9] = KRAS G12V, GppNHp-loaded, class symbols
[10] = KRAS WT, GppNHp-loaded, class symbols
[11] = Homo sapiens, SW-620, SW620 (KRAS G12V) cells, class symbols
[12] = Homo sapiens, SW-620, SW620 (KRAS G12V) cells

T3 sequence (P01116 1-169 isoform P01116-2 G12V): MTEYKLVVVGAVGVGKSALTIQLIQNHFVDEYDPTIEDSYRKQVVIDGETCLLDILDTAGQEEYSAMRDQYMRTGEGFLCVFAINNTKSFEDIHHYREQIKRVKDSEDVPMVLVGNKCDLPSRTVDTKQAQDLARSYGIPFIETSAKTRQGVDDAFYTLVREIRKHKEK
T4 sequence (P01116 1-169 isoform P01116-2): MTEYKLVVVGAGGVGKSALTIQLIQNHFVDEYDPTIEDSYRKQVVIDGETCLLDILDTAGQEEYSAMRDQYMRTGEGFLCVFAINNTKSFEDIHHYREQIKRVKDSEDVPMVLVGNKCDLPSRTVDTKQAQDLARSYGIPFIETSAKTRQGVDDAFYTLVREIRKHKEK
T2 sequence (P01116 1-169 isoform P01116-2 G12R): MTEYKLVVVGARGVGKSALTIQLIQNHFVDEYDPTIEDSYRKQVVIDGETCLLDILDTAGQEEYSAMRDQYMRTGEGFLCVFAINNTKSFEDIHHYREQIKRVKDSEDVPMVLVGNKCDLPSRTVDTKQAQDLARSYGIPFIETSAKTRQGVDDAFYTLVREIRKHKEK
T1 sequence (P01116 1-169 isoform P01116-2 G12D): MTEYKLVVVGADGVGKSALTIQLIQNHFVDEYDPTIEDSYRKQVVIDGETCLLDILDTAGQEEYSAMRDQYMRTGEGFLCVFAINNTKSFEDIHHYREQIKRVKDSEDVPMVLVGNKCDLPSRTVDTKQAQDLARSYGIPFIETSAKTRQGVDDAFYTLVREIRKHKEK

Row | SMILES | pIC50 [1, 7] | pIC50 [2, 8] | pIC50 [3, 9] | pIC50 [4, 10] | pIC50 ([5]; GP2d, class symbols) | pIC50 [6, 11] | pIC50 ([1]; KRAS G12D-GppNHp/RAF1 RBD HTRF) | pIC50 ([2]; KRAS G12R-GppNHp/RAF1 RBD HTRF) | pIC50 ([3]; KRAS G12V-GppNHp/RAF1 RBD HTRF) | pIC50 ([4]; KRAS WT-GppNHp/RAF1 RBD HTRF) | pIC50 ([5]; GP2d) | pIC50 [6, 12] | further results
1 | CCN(c1nc(OC[C@@]23CCCN2C[C@H](F)C3)nc2c(F)c(-c3ccc(F)c4sc(N)c(C#N)c34)c(C(F)(F)F)cc12)[C@H]1CCS(=O)(=O)C1 (atropisomer, axis not shown) [Compound 491] |  |  |  |  |  |  | 5.00 to 6.00 | < 5.00 | < 5.00 | 5.00 to 6.00 |  |  | pIC50 [5]: 6.00 to 7.00; pIC50 ([6]; SW620 (KRAS G12V) cells): 6.00 to 7.00
2 | C[C@@]1(O)CCCN(c2nc(OC[C@@]34CCCN3C[C@H](F)C4)nc3c(F)c(-c4ccc(F)c5sc(N)c(C#N)c45)c(C(F)(F)F)cc23)C1 [Compound 224] |  |  |  |  |  |  |  |  |  |  | > 7.00 | > 7.00 | pIC50 ([1]; KRAS G12D, GppNHp-loaded, Table 11): 6.00 to 7.00; pIC50 ([2]; KRAS G12R, GppNHp-loaded, Table 11): 6.00 to 7.00; pIC50 ([3]; KRAS G12V, GppNHp-loaded, Table 11): 6.00 to 7.00; pIC50 ([4]; KRAS WT, GppNHp-loaded, Table 11): 6.00 to 7.00
3 | CC(C)C(=O)N1CC[C@](C)(N(C)c2nc(OC[C@@]34CCCN3C[C@H](F)C4)nc3c(F)c(-c4ccc(F)c5sc(N)c(C#N)c45)c(C(F)(F)F)cc23)C1 [Compound 499] |  |  |  |  |  |  | 6.00 to 7.00 | 5.00 to 6.00 | 5.00 to 6.00 | 5.00 to 6.00 | > 7.00 | > 7.00 | 
4 | N#Cc1c(N)sc2c(F)ccc(-c3c(C(F)(F)F)cc4c(N5C[C@H]6C[C@@H]5CO6)nc(OC[C@@]56CCCN5C[C@H](F)C6)nc4c3F)c12 (single isomer, unassigned) [Compound 288] |  |  |  |  |  |  | < 5.00 | < 5.00 | < 5.00 | < 5.00 |  |  | pIC50 [5]: 6.00 to 7.00; pIC50 ([6]; SW620 (KRAS G12V) cells): 6.00 to 7.00
5 | CCN(c1nc(OC[C@@]23CCCN2C[C@H](F)C3)nc2c(F)c(-c3ccc(F)c4sc(N)c(C#N)c34)c(C(F)(F)F)cc12)[C@H]1CCN(C(=O)C2COC2)C1 (atropisomer, axis not shown) [Compound 580] | > 7.00 | > 7.00 | > 7.00 | > 7.00 | > 7.00 | > 7.00 |  |  |  |  |  |  | 
6 | CC(=O)NCCN(C)c1nc(OC[C@@]23CCCN2C[C@H](F)C3)nc2c(F)c(-c3ccc(F)c4sc(N)c(C#N)c34)c(C(F)(F)F)cc12 [Compound 284] |  |  |  |  |  |  | 6.00 to 7.00 | 6.00 to 7.00 | 6.00 to 7.00 | 6.00 to 7.00 | > 7.00 | > 7.00 | 
7 | CCN(c1nc(OC[C@@]23CCCN2C[C@H](F)C3)nc2c(F)c(-c3ccc(F)c4sc(N)c(C#N)c34)c(C(F)(F)F)cc12)[C@H]1CCN(C(=O)N(C)C)C1 [Compound 395] |  |  |  |  |  |  | > 7.00 | > 7.00 | > 7.00 | > 7.00 | > 7.00 | > 7.00 | 
8 | N#Cc1c(N)sc2c(F)ccc(-c3c(C(F)(F)F)cc4c(N5CC6COC[C@H]6C5)nc(OC[C@@]56CCCN5C[C@H](F)C6)nc4c3F)c12 (stereo partly drawn) [Compound 293] |  |  |  |  |  |  | 6.00 to 7.00 | 6.00 to 7.00 | 5.00 to 6.00 | 6.00 to 7.00 | > 7.00 | > 7.00 | 
9 | CC(=O)N1CC[C@@H]2[C@H]1CN2c1nc(OC[C@@]23CCCN2C[C@H](F)C3)nc2c(F)c(-c3ccc(F)c4sc(N)c(C#N)c34)c(C(F)(F)F)cc12 [Compound 514] |  |  |  |  |  |  | 6.00 to 7.00 | 6.00 to 7.00 | 6.00 to 7.00 | 6.00 to 7.00 | > 7.00 | > 7.00 | 
10 | CCN(c1nc(OC[C@@]23CCCN2C[C@H](F)C3)nc2c(F)c(-c3ccc(F)c4sc(N)c(C#N)c34)c(C(F)(F)F)cc12)C1CCN(C(=O)N2C3COCC2C3)C1 (stereo partly drawn) [Compound 652] | > 7.00 | > 7.00 | > 7.00 | > 7.00 | > 7.00 | > 7.00 |  |  |  |  |  |  | 
11 | CN1C[C@@H](N(C)c2nc(OC[C@@]34CCCN3C[C@H](F)C4)nc3c(F)c(-c4ccc(F)c5sc(N)c(C#N)c45)c(C(F)(F)F)cc23)CC1=O [Compound 338] |  |  |  |  |  |  | 6.00 to 7.00 | 6.00 to 7.00 | 6.00 to 7.00 | 6.00 to 7.00 | > 7.00 | > 7.00 | 
12 | CCN(c1nc(OC[C@@]23CCCN2C[C@H](F)C3)nc2c(F)c(-c3ccc(F)c4sc(N)c(C#N)c34)c(C(F)(F)F)cc12)[C@@H]1CCN(C(=O)C2CC2)[C@H]1C [Compound 415] |  |  |  |  |  |  | 6.00 to 7.00 | 6.00 to 7.00 | 5.00 to 6.00 | 6.00 to 7.00 | > 7.00 | > 7.00 | 
13 | CCN(c1nc(OC[C@@]23CCCN2C[C@H](F)C3)nc2c(F)c(-c3ccc(F)c4sc(N)c(C#N)c34)c(C(F)(F)F)cc12)[C@@H]1CN(C(=O)C(C)C)C[C@@H]1F [Compound 475] |  |  |  |  |  |  | 6.00 to 7.00 | 6.00 to 7.00 | 6.00 to 7.00 | 6.00 to 7.00 | > 7.00 | > 7.00 | 

Further lines, with some results ahead:

Row | pIC50 [1, 7] | pIC50 [2, 8] | pIC50 [3, 9] | pIC50 [4, 10] | pIC50 ([5]; GP2d, class symbols) | pIC50 [6, 11] | pIC50 ([1]; KRAS G12D-GppNHp/RAF1 RBD HTRF) | pIC50 ([2]; KRAS G12R-GppNHp/RAF1 RBD HTRF) | pIC50 ([3]; KRAS G12V-GppNHp/RAF1 RBD HTRF) | pIC50 ([4]; KRAS WT-GppNHp/RAF1 RBD HTRF) | pIC50 ([5]; GP2d) | pIC50 [6, 12] | SMILES | further results
14 | 6.00 to 7.00 | 6.00 to 7.00 | 6.00 to 7.00 | 6.00 to 7.00 | > 7.00 | > 7.00 |  |  |  |  |  |  | CCN(c1nc(OC[C@@]23CCCN2C[C@H](F)C3)nc2c(F)c(-c3ccc(F)c4sc(N)c(C#N)c34)c(C(F)(F)F)cc12)[C@H]1C[C@@H](COC)N(C(=O)C2CC2)C1 (atropisomer, axis not shown) [Compound 650] | 
15 | > 7.00 | > 7.00 | > 7.00 | > 7.00 | > 7.00 | > 7.00 |  |  |  |  |  |  | [2H]C([2H])([2H])C([2H])(C(=O)N1CC[C@H](N(CC)c2nc(OC[C@@]34CCCN3C[C@H](F)C4)nc3c(F)c(-c4ccc(F)c5sc(N)c(C#N)c45)c(C(F)(F)F)cc23)C1)C([2H])([2H])[2H] (atropisomer, axis not shown) [Compound 707] | 
16 | > 7.00 | 6.00 to 7.00 | 6.00 to 7.00 | 6.00 to 7.00 | > 7.00 | > 7.00 |  |  |  |  |  |  | COC(=O)N1CC[C@H](N(c2nc(OC[C@@]34CCCN3C[C@H](F)C4)nc3c(F)c(-c4ccc(F)c5sc(N)c(C#N)c45)c(C(F)(F)F)cc23)C2CC2)C1 (atropisomer, axis not shown) [Compound 767] | 
17 | > 7.00 | > 7.00 | > 7.00 | > 7.00 | > 7.00 | > 7.00 |  |  |  |  |  |  | CCN(c1nc(OC[C@@]23CCCN2C[C@H](F)C3)nc2c(F)c(-c3ccc(F)c4sc(N)c(C#N)c34)c(C(F)(F)F)cc12)[C@H]1CCN(C(=O)c2cn(C)nn2)C1 (atropisomer, axis not shown) [Compound 725] | 
18 | > 7.00 | > 7.00 | > 7.00 | > 7.00 | > 7.00 | > 7.00 |  |  |  |  |  |  | CCN(c1nc(OC[C@@]23CCCN2C[C@H](F)C3)nc2c(F)c(-c3ccc(F)c4sc(N)c(C#N)c34)c(C(F)(F)F)cc12)[C@H]1CCN(C(=O)c2ccnn2C)C1 (atropisomer, axis not shown) [Compound 723] | 
19 | > 7.00 | > 7.00 | > 7.00 | > 7.00 | > 7.00 | > 7.00 |  |  |  |  |  |  | CCN(c1nc(OC[C@@]23CCCN2C[C@H](F)C3)nc2c(F)c(-c3ccc(F)c4sc(N)c(C#N)c34)c(C(F)(F)F)cc12)[C@H]1CCN(C(=O)OC2CCOCC2)C1 (atropisomer, axis not shown) [Compound 684] | 
20 | 5.00 to 6.00 | < 5.00 | < 5.00 | 5.00 to 6.00 | > 7.00 | 6.00 to 7.00 |  |  |  |  |  |  | COC(=O)N1CC[C@H]2[C@@H]1CN2c1nc(OC[C@@]23CCCN2C[C@H](F)C3)nc2c(F)c(-c3ccc(F)c4sc(N)c(C#N)c34)c(C(F)(F)F)cc12 (atropisomer, axis not shown) [Compound 716] | 
21 | > 7.00 | 6.00 to 7.00 | 6.00 to 7.00 | 6.00 to 7.00 | > 7.00 | > 7.00 |  |  |  |  |  |  | N#Cc1c(N)sc2c(F)ccc(-c3c(C(F)(F)F)cc4c(N(C5CC5)[C@H]5CCN(C(=O)[C@H]6CCO6)C5)nc(OC[C@@]56CCCN5C[C@H](F)C6)nc4c3F)c12 (atropisomer, axis not shown) [Compound 812] | 
